Here are results for 25 compounds from ChEMBL document CHEMBL1146693, “Design and SAR of thienopyrimidine and thienopyridine inhibitors of VEGFR-2 kinase activity” (Bioorg Med Chem Lett, 2004).

Where “and” joins values, the source holds several entries; their conditions need not be identical. Equal values may be shown once. A value given as a limit tells only on which side of the number the result lay.

For the assay, the target named is Epidermal growth factor receptor (Homo sapiens, UniProt P00533). Nature of the assay: Inhibitory activity against epidermal growth factor receptor.
Epidermal growth factor receptor, sequence (P00533 whole entry): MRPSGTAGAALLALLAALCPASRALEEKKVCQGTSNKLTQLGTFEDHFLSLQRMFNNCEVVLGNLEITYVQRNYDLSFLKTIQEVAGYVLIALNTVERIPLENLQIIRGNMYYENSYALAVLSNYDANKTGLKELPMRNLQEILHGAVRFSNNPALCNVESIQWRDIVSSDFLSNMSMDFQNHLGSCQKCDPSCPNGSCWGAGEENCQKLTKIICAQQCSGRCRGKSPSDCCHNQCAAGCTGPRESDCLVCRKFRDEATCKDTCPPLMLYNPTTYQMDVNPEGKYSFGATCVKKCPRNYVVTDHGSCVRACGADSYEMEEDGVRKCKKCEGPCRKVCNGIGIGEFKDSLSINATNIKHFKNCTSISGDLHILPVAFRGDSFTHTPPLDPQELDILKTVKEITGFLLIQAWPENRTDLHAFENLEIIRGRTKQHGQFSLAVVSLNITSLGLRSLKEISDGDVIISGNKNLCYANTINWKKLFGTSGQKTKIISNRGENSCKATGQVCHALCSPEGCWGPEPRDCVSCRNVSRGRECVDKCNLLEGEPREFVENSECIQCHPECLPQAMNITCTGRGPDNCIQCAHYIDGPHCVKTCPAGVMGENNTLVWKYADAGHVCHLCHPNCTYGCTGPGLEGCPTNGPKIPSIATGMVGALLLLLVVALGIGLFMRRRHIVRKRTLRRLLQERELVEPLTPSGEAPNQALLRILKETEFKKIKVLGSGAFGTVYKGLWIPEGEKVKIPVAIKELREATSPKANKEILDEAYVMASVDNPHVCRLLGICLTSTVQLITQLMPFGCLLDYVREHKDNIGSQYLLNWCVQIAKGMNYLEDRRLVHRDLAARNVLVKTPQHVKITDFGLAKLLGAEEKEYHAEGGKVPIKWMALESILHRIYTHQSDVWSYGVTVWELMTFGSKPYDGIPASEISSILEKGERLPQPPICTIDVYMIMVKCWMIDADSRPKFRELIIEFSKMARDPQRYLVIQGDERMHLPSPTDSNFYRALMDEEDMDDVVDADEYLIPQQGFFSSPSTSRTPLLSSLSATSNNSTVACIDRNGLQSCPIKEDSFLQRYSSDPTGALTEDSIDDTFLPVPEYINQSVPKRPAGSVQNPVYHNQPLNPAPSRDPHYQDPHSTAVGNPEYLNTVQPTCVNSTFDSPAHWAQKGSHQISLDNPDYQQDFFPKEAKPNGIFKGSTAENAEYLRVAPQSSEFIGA

One may read the IC50 as the midpoint of a concentration-inhibition curve. Low values mean inhibition by little substance, high ones a need for much substance. In the case of `Cc1cc2cc(Nc3ccnc4cc(-c5ccc(CN6CCOCC6)cc5)sc34)ccc2[nH]1`, the IC50 came to 1250 nM.
Compound `CC(=O)NCCNCc1ccc(-c2cc3ncnc(Nc4ccc5[nH]ccc5c4)c3s2)cc1` had an IC50 of 5 nM.
The same measure for `c1csc(-c2cc3nccc(Nc4ccc5[nH]ccc5c4)c3s2)c1`: 1 nM.
The value for `NCc1ccc(-c2cc3ncnc(Nc4ccc5[nH]ccc5c4)c3s2)cc1` was 4 nM.
Compound `Cc1cc2cc(Nc3ccnc4cc(-c5ccc(CNCCO)cc5)sc34)ccc2[nH]1` had an IC50 of 1000 nM.
Compound `OCCNCc1ccc(-c2cc3nccc(Nc4ccc5[nH]ccc5c4)c3s2)cc1` displayed an IC50 of 2 nM.
The value for `CC(C)(CO)NCc1ccc(-c2cc3ncnc(Nc4ccc5[nH]ccc5c4)c3s2)cc1` was 1 nM and 8 nM; that for `Cc1cc2cc(Nc3ccnc4cc(-c5ccc(CN(C)CCO)cc5)sc34)ccc2[nH]1` was 140 nM; that for `c1nc(Nc2ccc3[nH]ccc3c2)c2sccc2n1` was 600 nM.
Regarding `NC(=O)C1CCN(Cc2ccc(-c3cc4nccc(Nc5ccc6[nH]ccc6c5)c4s3)cc2)CC1`, inhibition was half-maximal at 1 nM (IC50).
For `NC(=O)C1CCN(Cc2ccc(-c3cc4ncnc(Nc5ccc6[nH]ccc6c5)c4s3)cc2)CC1`, the IC50 is 7 nM.
Turning to `Cc1c[nH]c2ccc(Nc3ncnc4cc(-c5ccccc5)sc34)cc12`, the IC50 was found to be 5 nM.
`c1ccc(NCCN(c2cc3ncnc(Nc4ccc5[nH]ccc5c4)c3s2)n2cccc2)cc1` came in with an IC50 of 1 nM.
The same measure for `Cc1cc2cc(Nc3ccnc4cc(-c5ccc(CNCCOCCO)cc5)sc34)ccc2[nH]1`: 657 nM; for `Cc1cc2cc(Nc3ncnc4cc(-c5ccccc5)sc34)ccc2[nH]1`: 100 nM.
The value for `c1cc(Nc2ccc3[nH]ccc3c2)c2sc(-c3ccc(CN4CCOCC4)cc3)cc2n1` was 30 nM; that for `CN(CCO)Cc1ccc(-c2cc3nccc(Nc4ccc5[nH]ccc5c4)c3s2)cc1` was 3 nM.
The same measure for `NC(=O)c1ccc(Nc2ncnc3cc(-c4ccccc4)sc23)cc1`: over 1000 nM; for `OCc1ccc(-c2cc3ncnc(Nc4ccc5[nH]ccc5c4)c3s2)cc1`: 1 nM.
For `Cc1cc2cc(Nc3ccnc4cc(-c5ccc(CNCCCO)cc5)sc34)ccc2[nH]1`, the IC50 stood at 500 nM.
The same measure for `c1cc(Nc2ccc3[nH]ccc3c2)c2sc(-c3ccc(CNCCN4CCNCC4)cc3)cc2n1`: 3 nM.
The value for `c1ccc(CCCN(c2cc3ncnc(Nc4ccc5[nH]ccc5c4)c3s2)n2ccnc2)cc1` was 5 nM and 1 nM; that for `CC(=O)NCCNCc1ccc(-c2cc3nccc(Nc4ccc5[nH]ccc5c4)c3s2)cc1` was 2 nM.
The value for `OCCCNCc1ccc(-c2cc3nccc(Nc4ccc5[nH]ccc5c4)c3s2)cc1` was 9 nM; that for `c1ccc(-c2cc3ncnc(Nc4ccc5[nH]ncc5c4)c3s2)cc1` was 1600 nM.
